Data reported in US20180110762A1, “Compositions Methods for Treating Chronic Kidney Disease” (Merck Sharp & Dohme Corp, priority 2015, published 2018).

Target: T1, αvβ3 purified from 293 cells overexpressing αvβ3 (Homo sapiens, UniProt P05106+P06756)
T1 construct: made in house; host or cells: 293 cells overexpressing αvβ3
Test: SPAV3 binding assay (scintillation proximity)
Text: • 1. Wheat germ agglutinin Scintillation Proximity Beads (SPA): Amersham • 2. Octylglucopyranoside: Calbiochem • 3. HEPES: Calbiochem • 4. NaCl: Fisher • 5. CaCl2: Fisher • 6. MgCl2: SIGMA • 7. Phenylmethylsulfonylfluoride (PMSF): SIGMA • 8. Optiplate: PACKARD • 9. (S)-3-(4-(2-(6-aminopyridin-2-yl)ethyl)benzamido)-2-((4-(iodo-^125I)phenyl)sulfonamido)propanoic acid as found in WO0046215 (specific activity 500-1000 Ci/mmole) • 10. Test compound • 11. Purified integrin receptor: αvβ3 was purified from 293 cells overexpressing αvβ3 (Duong et al., J. Bone Min. Res., 8:S378, 1993) according to Pytela (Methods in Enzymology, 144:475, 1987) • 12. Binding buffer: 50 mM HEPES, pH 7.8, 100 mM NaCl, 1 mM Ca^2+/Mg^2+, 0.5 mM PMSF • 13. 50 mM octylglucoside in binding buffer: 50-OG buffer
• 1. Pretreatment of SPA beads: • 500 mg of lyophilized SPA beads were first washed four times with 200 ml of 50-OG buffer and once with 100 ml of binding buffer, and then resuspended in 12.5 ml of binding buffer. • 2. Preparation of SPA beads and receptor mixture • In each assay tube, 2.5 μl (40 mg/ml) of pretreated beads were suspended in 97.5 μl of binding buffer and […] of 50-OG buffer. […] (˜30 ng/μ1) of purified receptor was added to the beads in suspension with stirring at room temperature for 30 minutes. The mixture was then centrifuged at 2,500 rpm in a Beckman GPR Benchtop centrifuge for 10 minutes at 4° C. The pellets were then resuspended in 50 μl of binding buffer and 25 μl of 50-OG buffer. • 3. Reaction • The following were sequentially added into Optiplate in corresponding wells: • (i) Receptor/beads mixture (75 μl) • (ii) 25 μl of each of the following: compound to be tested, binding buffer for total binding or A-8 for non-specific binding (final concentration 1 μM) • (iii) (S)-3-(4-(2-(6-aminopyridin-2-yl)ethyl)benzamido)-2-((4-(iodo-^125I)phenyl)sulfonamido)propanoic acid as found in WO0046215 (specific activity 500-1000 Ci/mmole) in binding buffer (25 μl, final concentration 40 pM) • (iv) Binding buffer (125 μl) • (v) Each plate was sealed with plate sealer from PACKARD and incubated overnight with rocking at 4° C. • 4. Plates were counted using PACKARD TOPCOUNT • 5. % inhibition was calculated as follows: • A=total counts • B=nonspecific counts • C=sample counts
% inhibition=[{(A−B)−(C−B)}/(A−B)]/(A−B)×100

T1 sequence (P06756 31-889 limits assumed): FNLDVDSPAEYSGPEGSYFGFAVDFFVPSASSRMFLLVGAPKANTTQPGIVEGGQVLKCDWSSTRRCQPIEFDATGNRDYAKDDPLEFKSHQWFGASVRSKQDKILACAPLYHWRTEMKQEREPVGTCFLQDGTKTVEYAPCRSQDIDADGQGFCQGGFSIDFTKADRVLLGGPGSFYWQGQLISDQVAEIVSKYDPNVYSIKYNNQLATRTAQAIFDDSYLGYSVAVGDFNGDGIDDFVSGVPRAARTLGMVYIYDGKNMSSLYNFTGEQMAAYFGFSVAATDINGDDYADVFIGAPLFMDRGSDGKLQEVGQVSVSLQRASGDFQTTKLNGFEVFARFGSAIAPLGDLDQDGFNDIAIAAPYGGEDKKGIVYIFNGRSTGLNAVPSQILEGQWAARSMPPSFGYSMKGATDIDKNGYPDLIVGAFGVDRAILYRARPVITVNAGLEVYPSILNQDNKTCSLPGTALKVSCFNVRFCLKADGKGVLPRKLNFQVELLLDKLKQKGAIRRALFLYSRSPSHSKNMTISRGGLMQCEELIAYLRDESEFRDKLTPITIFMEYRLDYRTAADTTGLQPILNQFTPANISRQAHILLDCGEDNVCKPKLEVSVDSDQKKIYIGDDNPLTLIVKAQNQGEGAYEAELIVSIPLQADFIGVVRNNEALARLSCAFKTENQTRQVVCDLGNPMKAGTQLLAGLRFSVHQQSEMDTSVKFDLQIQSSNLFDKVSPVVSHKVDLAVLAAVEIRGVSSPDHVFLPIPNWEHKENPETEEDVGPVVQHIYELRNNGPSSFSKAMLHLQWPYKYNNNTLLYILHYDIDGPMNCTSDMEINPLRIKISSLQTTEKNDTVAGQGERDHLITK
T1 sequence (P06756 891-1048 partner limits assumed): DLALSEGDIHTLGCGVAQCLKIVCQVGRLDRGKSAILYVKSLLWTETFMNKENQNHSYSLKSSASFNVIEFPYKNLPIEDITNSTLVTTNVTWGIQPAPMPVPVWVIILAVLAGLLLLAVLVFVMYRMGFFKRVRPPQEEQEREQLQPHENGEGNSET
T1 sequence (P05106 27-788): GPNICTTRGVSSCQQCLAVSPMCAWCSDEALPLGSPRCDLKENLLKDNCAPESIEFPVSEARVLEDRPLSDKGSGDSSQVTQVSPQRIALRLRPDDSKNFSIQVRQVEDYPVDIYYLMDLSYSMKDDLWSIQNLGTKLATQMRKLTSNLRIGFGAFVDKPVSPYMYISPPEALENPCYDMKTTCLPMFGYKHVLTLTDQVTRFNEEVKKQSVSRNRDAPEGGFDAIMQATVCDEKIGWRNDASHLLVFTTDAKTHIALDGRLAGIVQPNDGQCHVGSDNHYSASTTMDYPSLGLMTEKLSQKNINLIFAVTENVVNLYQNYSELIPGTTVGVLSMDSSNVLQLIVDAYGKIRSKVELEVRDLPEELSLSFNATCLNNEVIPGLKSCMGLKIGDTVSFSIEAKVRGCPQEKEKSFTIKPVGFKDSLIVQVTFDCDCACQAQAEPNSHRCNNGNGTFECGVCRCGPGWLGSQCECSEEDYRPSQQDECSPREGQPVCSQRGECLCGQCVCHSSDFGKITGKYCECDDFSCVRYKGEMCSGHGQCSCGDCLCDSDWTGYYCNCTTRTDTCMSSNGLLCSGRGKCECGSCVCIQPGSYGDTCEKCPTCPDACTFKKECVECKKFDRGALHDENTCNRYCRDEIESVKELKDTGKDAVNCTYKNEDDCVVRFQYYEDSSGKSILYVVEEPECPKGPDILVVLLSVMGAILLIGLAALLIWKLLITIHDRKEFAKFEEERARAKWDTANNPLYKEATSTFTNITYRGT

| IC50 [nM] | SMILES |
| --- | --- |
| 0.1 | Cc1ncc(C(CC(=O)O)CC(=O)CCCCc2ccc3c(n2)NCCC3)cn1 (single isomer, unassigned) [Compound G, 3(S or R)-(2-Methyl-pyrimidin-5-yl)-5-oxo-9-(5,6,7,8-tetrahydro-[1,8]naphthyridin-2-yl)-nonanoic Acid] |
| 0.1 | COc1ccc([C@H](CC(=O)O)N2CCN(CCCc3ccc4c(n3)NCCC43CC3)C2=O)cn1 [Compound C] |
| 0.1 | CCOc1ccc([C@H](CC(=O)O)N2CCN(CCCc3ccc4c(n3)NCCC4)C2=O)cn1 [Compound D] |
| 0.1 | O=C(O)C[C@H](/C=C/CCCCc1ccc2c(n1)NCCC2)c1cncnc1 [Compound E, 3 (R)-(Pyrimidin-5-yl)-9-(5,6,7,8-tetrahydro-[1,8]-naphthyridin-2-yl)-(E)-non-4-enoic Acid] |
| 0.1 | Cc1ncc([C@@H](CCCCCCc2ccc3c(n2)NCCC3)CC(=O)O)cn1 [Compound F] |
| 0.2 | Cc1ncc(C(CC(=O)O)CC(=O)CCCCc2ccc3c(n2)NCCCC3)cn1 [Compound H, 3(R) and 3(S)-(2-Methyl-pyrimidin-5-yl)-5-oxo-9-(5,6,7,8-tetrahydro-5H-pyrido[2,3-b]azepin-2-yl)-nonanoic Acid] |
